Test results as given in US9855272B2, “1H-pyrazolo[3,4-B]pyridines and therapeutic uses thereof” (Samumed, LLC, priority 2009, dated 2018).

System: Wnt
Test: Wnt reporter assay: SP5 promoter-driven firefly luciferase in SW480 cells
Format: cell-based
Details: Homo sapiens; SW480 colon cancer cells with SP5 promoter (TCF/LEF) luciferase reporter; 24-40 h after compound addition; normalized to DMSO; read-out: Wnt inhibition, IC50
Description: Another screening assay for Wnt activity is described as follows. Reporter cell lines can be generated by stably transducing cells of cancer cell lines (e.g., colon cancer) with a lentiviral construct that include a wnt-responsive promoter driving expression of the firefly luciferase gene.
Lentiviral constructs can be made in which the SP5 promoter, a promoter having eight TCF/LEF binding sites derived from the SP5 promoter, is linked upstream of the firefly luciferase gene. The lentiviral constructs can also include a hygromycin resistance gene as a selectable marker. The SP5 promoter construct can be used to transduce SW480 cells, a colon cancer cell line having a mutated APC gene that generates a truncated APC protein, leading to de-regulated accumulation of β-catenin.
Cultured SW480 cells bearing a reporter construct can be distributed at approximately 10,000 cells per well into 96 well or 384 well plates. Compounds from a small molecule compound library can then be added to the wells in half-log dilutions using a ten micromolar top concentration. A series of control wells for each cell type receive only buffer and compound solvent. Twenty-four to forty hours after the addition of compound, reporter activity for luciferase can be assayed, for example, by addition of the BrightGlo luminescence reagent (Promega) and the Victor3 plate reader (Perkin Elmer). Readings can be normalized to DMSO only treated cells, and normalized activities can then be used in the IC50 calculations.

SMILES | IC50 [nM]
c1cncc(-c2cnc3[nH]nc(-c4nc5c(-c6cccnc6)cncc5[nH]4)c3c2)c1 [Compound 45] | 200 to 1200
c1cncc(-c2cnc3[nH]nc(-c4nc5ccncc5[nH]4)c3c2)c1 [Compound 46] | 1000 to 2000
CCC(=O)Nc1cncc(-c2cnc3[nH]nc(-c4nc5c(-c6ccc(F)cc6)cncc5[nH]4)c3c2)c1 [Compound 50, N-(5-(3-(7-(4-fluorophenyl)-3H-imidazo[4,5-c]pyridin-2-yl)-1H-pyrazolo[3,4-b]pyridin-5-yl)pyridin-3-yl)propionamide] | < 1.5
Cc1ccncc1-c1cnc2[nH]nc(-c3nc4ccncc4[nH]3)c2c1 [Compound 29, 3-(3H-imidazo[4,5-c]pyridin-2-yl)-5-(4-methylpyridin-3-yl)-1H-pyrazolo[3,4-b]pyridine] | 3000 to 5000
CN(C)C(=O)Nc1cncc(-c2cnc3[nH]nc(-c4nc5c(-c6cccc(F)c6)cncc5[nH]4)c3c2)c1 [Compound 66, 3-(5-(3-(7-(3-fluorophenyl)-3H-imidazo[4,5-c]pyridin-2-yl)-1H-pyrazolo[3,4-b]pyridin-5-yl)pyridin-3-yl)-1,1-dimethylurea] | < 15
O=C(Nc1cncc(-c2cnc3[nH]nc(-c4nc5c(-c6cccc(F)c6)cncc5[nH]4)c3c2)c1)N1CCOCC1 [Compound 62, N-(5-(3-(7-(3-fluorophenyl)-3H-imidazo[4,5-c]pyridin-2-yl)-1H-pyrazolo[3,4-b]pyridin-5-yl)pyridin-3-yl)morpholine-4-carboxamide] | < 20
CC(C)CC(=O)Nc1cncc(-c2cnc3[nH]nc(-c4nc5ccncc5[nH]4)c3c2)c1 [Compound 53, N-(5-(3-(3H-imidazo[4,5-c]pyridin-2-yl)-1H-pyrazolo[3,4-b]pyridin-5-yl)pyridin-3-yl)-3-methylbutanamide] | > 10000
CCC(=O)Nc1cncc(-c2cnc3[nH]nc(-c4nc5c(N6CCOCC6)cncc5[nH]4)c3c2)c1 [Compound 55, N-(5-(3-(7-morpholino-3H-imidazo[4,5-c]pyridin-2-yl)-1H-pyrazolo[3,4-b]pyridin-5-yl)pyridin-3-yl)propionamide] | > 10000
CCC(=O)Nc1cncc(-c2cnc3[nH]nc(-c4nc5c(-c6cccc(F)c6)cncc5[nH]4)c3c2)c1 [Compound 49, N-(5-(3-(7-(3-fluorophenyl)-3H-imidazo[4,5-c]pyridin-2-yl)-1H-pyrazolo[3,4-b]pyridin-5-yl)pyridin-3-yl)propionamide] | < 5
CC(C)C(=O)Nc1cncc(-c2cnc3[nH]nc(-c4nc5c(N6CCN(C)CC6)cncc5[nH]4)c3c2)c1 [Compound 59, N-(5-(3-(7-(4-methylpiperazin-1-yl)-3H-imidazo[4,5-c]pyridin-2-yl)-1H-pyrazolo[3,4-b]pyridin-5-yl)pyridin-3-yl)isobutyramide] | 2000 to 3000
CCC(=O)Nc1cncc(-c2cnc3[nH]nc(-c4nc5c(-c6ccccc6F)cncc5[nH]4)c3c2)c1 [Compound 51, N-(5-(3-(7-(2-fluorophenyl)-3H-imidazo[4,5-c]pyridin-2-yl)-1H-pyrazolo[3,4-b]pyridin-5-yl)pyridin-3-yl)propionamide] | < 45
CC(C)C(=O)Nc1cncc(-c2cnc3[nH]nc(-c4nc5ccncc5[nH]4)c3c2)c1 [Compound 52, N-(5-(3-(3H-imidazo[4,5-c]pyridin-2-yl)-1H-pyrazolo[3,4-b]pyridin-5-yl)pyridin-3-yl)isobutyramide] | > 10000
CCC(=O)Nc1cncc(-c2cnc3[nH]nc(-c4nc5c(-c6cccnc6)cncc5[nH]4)c3c2)c1 [Compound 47, N-(5-(3-(7-(pyridin-3-yl)-3H-imidazo[4,5-c]pyridin-2-yl)-1H-pyrazolo[3,4-b]pyridin-5-yl)pyridin-3-yl)propionamide] | 7000 to 10000
CC(C)CC(=O)Nc1cncc(-c2cnc3[nH]nc(-c4nc5c(N6CCN(C)CC6)cncc5[nH]4)c3c2)c1 [Compound 57, 3-methyl-N-(5-(3-(7-(4-methylpiperazin-1-yl)-3H-imidazo[4,5-c]pyridin-2-yl)-1H-pyrazolo[3,4-b]pyridin-5-yl)pyridin-3-yl)butanamide] | 1000 to 4000
